Read-outs that look alike come from different tables or passages of the source.
Assay: Single ascending-dose (SAD) study, plasma pharmacokinetics
Type: in vivo, human
Conditions: for Cmax / AUC(0-t) / k el / AUC(0-inf) / MRT / Vd/F / half-life / Tmax: both sexes, human
Description: The study comprised a total of 7 dose groups (2.5, 5, 10, 20, 40, 60, and 80 mg groups, respectively). The first dose group (2.5 mg) consisted of 8 subjects, with 6 receiving HEC113995PA·H2O and 2 receiving placebo. Dose groups 2–7 each included 10 subjects, with 8 subjects receiving HEC113995PA·H2O and 2 subjects receiving placebo. Male and female participants were randomly assigned to the groups. Serial blood samples were collected before and after drug administration to determine the plasma concentration of pharmacokinetics (PK) and to evaluate the pharmacokinetic characteristics. The time points of blood collection and safety evaluation of PK in the second to seventh dose groups were adjusted based on the results of the first dose group. Drug safety and tolerability were evaluated on day 2 and 4 in the first dose group and on day 4 and 7 in the second to seventh dose groups. The trial was conducted in a dose-escalation manner, with progression to the next dose arm only after the safety of the previous arm had been evaluated. In the fourth group (20 mg group), in addition to blood samples, urine and stool samples were also collected for in vivo drug metabolic transformation studies.
In the first dose group of single ascending-dose study, PK blood samples were collected at 0.5 h before administration and 0.5, 1, 1.5, 2, 2.5, 3, 4, 5, 6, 8, 10, 12, 24, 36, 48, and 72 h after administration. In other SAD groups, MAD groups and food effect study, PK blood samples were collected at 0.5 h before administration, and 1, 2, 3, 4, 5, 6, 7, 8, 10, 12, 24, 48, 72, 96, 120 and 144 h after administration. Approximately 4 mL of venous blood was obtained from each collection and placed in a vacuum collection vessel containing K2EDTA anticoagulant. The blood was centrifuged and packed according to the instruction provided by the Biological Sample Detection and Analysis Unit. Briefly, all samples were centrifuged at 4°C, 1,500 g for 10 min within 0.5 h after blood collection. After centrifugation, the plasma was aliquoted into two cryogenic storage tubes. The first tube (Tube A) contained at least 0.8 mL of plasma for analytical testing, and the remaining plasma is allocated into the backup tube (Tube B). The plasma samples were stored at −80°C within 1 h after aliquoting for further analysis.
The concentration of HEC113995PA·H2O in human plasma samples (K2EDTA) was quantitatively analyzed using the LC-MS/MS method. Plasma samples (50 μL) were processed using protein precipitation with 5 μL deuterated internal standard (HEC124659) and 100 μL acetonitrile. The Shimadzu LCMS-8060 system coupled with a GL Sciences Inc. InertSustain AQ-C18 HP column (50 × 2.1 mm, 3 μm) achieved chromatographic separation through gradient elution using 0.04% TFA aqueous solution (pH 2.1) and acetonitrile at 0.4 mL/min. ESI-positive mode detection employed optimized parameters: 300°C interface temperature, 250°C DL temperature, 3 L/min nebulizer gas, and 400°C heating block temperature.
Using WinNonlin 7.0 for non-compartmental analysis (NCA), pharmacokinetic (PK) parameters were meticulously calculated based on the actual sampling times for plasma, urine, and fecal samples from each subject post-administration. These parameters encompassed a comprehensive range, including the area under the concentration–time curve (AUC), AUC from time zero (pre-dose) to the time of the last measurable concentration (AUC0-t), and AUC from time zero (pre-dose) to infinity (AUC0-∞). Additionally, maximum observed plasma concentration (Cmax), time to achieve maximum plasma concentration (Tmax), terminal elimination half-life (t1/2), elimination rate constant (Ke), apparent volume of distribution (Vd/F), clearance rate (CL/F), and mean residence time (MRT) were also determined. The AUC0-t and AUC0-∞ values were computed using the linear trapezoidal rule method. Tmax and Cmax were ascertained based on the actual observed data. […]

[1] = across single-dose groups 2.5–80 mg

In the case of `Cc1nc(-c2cnc(N3CCN(CCCc4c[nH]c5ccc(C#N)cc45)CC3)nc2)sc1C(N)=O` [HEC113995PA·H2O], the Cl/F (SAD single dose 2.5 mg, N = 6, mean (SD)) is reported as 12.03 (3.52) L/h, the Cl/F (SAD single dose 5 mg, N = 8, mean (SD)) is reported as 10.94 (1.75) L/h and the Cl/F (SAD single dose 10 mg, N = 8, mean (SD)) is reported as 12.65 (3.13) L/h. The Cl/F (SAD single dose 20 mg, N = 8, mean (SD)) was 14.53 (5.78) L/h, the Cl/F (SAD single dose 40 mg, N = 8, mean (SD)) was 14.14 (4.06) L/h and the Cl/F (SAD single dose 60 mg, N = 8, mean (SD)) was 15.07 (4.58) L/h. For the same compound, the Cl/F (SAD single dose 80 mg, N = 8, mean (SD)) was 14 (2.41) L/h, the “apparent clearance (CL/F), range of arithmetic means” value [1] was 10.9380 to 15.0736 L/h and the elimination rate constant (Kel), range of arithmetic means [1] was 0.0187 to 0.0256 h⁻¹. The Cmax (oral, SAD single dose 2.5 mg, N = 6, plasma, mean (SD), read-out: Cmax) was 5.27 ng/mL, the Cmax (oral, SAD single dose 5 mg, N = 8, plasma, mean (SD), read-out: Cmax) was 14 ng/mL and the Cmax (oral, SAD single dose 10 mg, N = 8, plasma, mean (SD), read-out: Cmax) was 24.4 ng/mL. The Cmax (oral, SAD single dose 20 mg, N = 8, plasma, mean (SD), read-out: Cmax) was 40.6 ng/mL, the Cmax (oral, SAD single dose 40 mg, N = 8, plasma, mean (SD), read-out: Cmax) was 88.5 ng/mL and the Cmax (oral, SAD single dose 60 mg, N = 8, plasma, mean (SD), read-out: Cmax) was 149 ng/mL. It also gave a Cmax (oral, SAD single dose 80 mg, N = 8, plasma, mean (SD), read-out: Cmax) of 164 ng/mL, an AUC(0-t) (plasma, oral, 2.5 mg, SAD single dose 2.5 mg, N = 6, mean (SD), read-out: AUC0-t) of 177 ng·h/mL and an AUC(0-t) (plasma, oral, 5 mg, SAD single dose 5 mg, N = 8, mean (SD), read-out: AUC0-t) of 439 ng·h/mL. For the same compound, the AUC(0-t) (plasma, oral, 10 mg, SAD single dose 10 mg, N = 8, mean (SD), read-out: AUC0-t) was 801 ng·h/mL, the AUC(0-t) (plasma, oral, 20 mg, SAD single dose 20 mg, N = 8, mean (SD), read-out: AUC0-t) was 1450 ng·h/mL and the AUC(0-t) (plasma, oral, 40 mg, SAD single dose 40 mg, N = 8, mean (SD), read-out: AUC0-t) was 2910 ng·h/mL. For the same compound, the AUC(0-t) (plasma, oral, 60 mg, SAD single dose 60 mg, N = 8, mean (SD), read-out: AUC0-t) was 4100 ng·h/mL, the AUC(0-t) (plasma, oral, 80 mg, SAD single dose 80 mg, N = 8, mean (SD), read-out: AUC0-t) was 5650 ng·h/mL and the k el (plasma, oral, SAD single dose 2.5 mg, N = 6, mean (SD)) was 6.39e-06 s⁻¹. For the same compound, the AUC(0-inf) (plasma, oral, SAD single dose 2.5 mg, N = 6, mean (SD), read-out: AUC0-∞) was 220 ng·h/mL, the MRT (plasma, oral, SAD single dose 2.5 mg, N = 6, mean (SD), read-out: MRT) was 44.8 h and the Vd/F (plasma, oral, SAD single dose 2.5 mg, N = 6, mean (SD), read-out: Vz/F) was 518 L. The half-life (plasma, oral, SAD single dose 2.5 mg, N = 6, mean (SD), read-out: t1/2 (converted)) was 1820 min, the Tmax (plasma, oral, SAD single dose 2.5 mg, N = 6, median (min, max), read-out: Tmax) was 6 h and the k el (plasma, oral, SAD single dose 5 mg, N = 8, mean (SD)) was 7.11e-06 s⁻¹. For the same compound, the AUC(0-inf) (plasma, oral, SAD single dose 5 mg, N = 8, mean (SD), read-out: AUC0-∞) was 467 ng·h/mL, the MRT (plasma, oral, SAD single dose 5 mg, N = 8, mean (SD), read-out: MRT) was 39.8 h and the Vd/F (plasma, oral, SAD single dose 5 mg, N = 8, mean (SD), read-out: Vz/F) was 430 L. The half-life (plasma, oral, SAD single dose 5 mg, N = 8, mean (SD), read-out: t1/2 (converted)) was 1630 min, the Tmax (plasma, oral, SAD single dose 5 mg, N = 8, median (min, max), read-out: Tmax) was 5 h and the k el (plasma, oral, SAD single dose 10 mg, N = 8, mean (SD)) was 7.11e-06 s⁻¹. It also gave an AUC(0-inf) (plasma, oral, SAD single dose 10 mg, N = 8, mean (SD), read-out: AUC0-∞) of 832 ng·h/mL, an MRT (plasma, oral, SAD single dose 10 mg, N = 8, mean (SD), read-out: MRT) of 39.1 h and a Vd/F (plasma, oral, SAD single dose 10 mg, N = 8, mean (SD), read-out: Vz/F) of 494 L. For the same compound, the half-life (plasma, oral, SAD single dose 10 mg, N = 8, mean (SD), read-out: t1/2 (converted)) was 1680 min, the Tmax (plasma, oral, SAD single dose 10 mg, N = 8, median (min, max), read-out: Tmax) was 6 h and the k el (plasma, oral, SAD single dose 20 mg, N = 8, mean (SD)) was 5.19e-06 s⁻¹. The AUC(0-inf) (plasma, oral, SAD single dose 20 mg, N = 8, mean (SD), read-out: AUC0-∞) was 1520 ng·h/mL, the MRT (plasma, oral, SAD single dose 20 mg, N = 8, mean (SD), read-out: MRT) was 42.2 h and the Vd/F (plasma, oral, SAD single dose 20 mg, N = 8, mean (SD), read-out: Vz/F) was 772 L. For the same compound, the half-life (plasma, oral, SAD single dose 20 mg, N = 8, mean (SD), read-out: t1/2 (converted)) was 2310 min, the Tmax (plasma, oral, SAD single dose 20 mg, N = 8, median (min, max), read-out: Tmax) was 8 h and the k el (plasma, oral, SAD single dose 40 mg, N = 8, mean (SD)) was 6.08e-06 s⁻¹. The AUC(0-inf) (plasma, oral, SAD single dose 40 mg, N = 8, mean (SD), read-out: AUC0-∞) was 3010 ng·h/mL, the MRT (plasma, oral, SAD single dose 40 mg, N = 8, mean (SD), read-out: MRT) was 38.1 h and the Vd/F (plasma, oral, SAD single dose 40 mg, N = 8, mean (SD), read-out: Vz/F) was 661 L. The half-life (plasma, oral, SAD single dose 40 mg, N = 8, mean (SD), read-out: t1/2 (converted)) was 1930 min, the Tmax (plasma, oral, SAD single dose 40 mg, N = 8, median (min, max), read-out: Tmax) was 5 h and the k el (plasma, oral, SAD single dose 60 mg, N = 8, mean (SD)) was 6.11e-06 s⁻¹. The AUC(0-inf) (plasma, oral, SAD single dose 60 mg, N = 8, mean (SD), read-out: AUC0-∞) was 4240 ng·h/mL, the MRT (plasma, oral, SAD single dose 60 mg, N = 8, mean (SD), read-out: MRT) was 35.3 h and the Vd/F (plasma, oral, SAD single dose 60 mg, N = 8, mean (SD), read-out: Vz/F) was 762 L. For the same compound, the half-life (plasma, oral, SAD single dose 60 mg, N = 8, mean (SD), read-out: t1/2 (converted)) was 2190 min, the Tmax (plasma, oral, SAD single dose 60 mg, N = 8, median (min, max), read-out: Tmax) was 5.5 h and the k el (plasma, oral, SAD single dose 80 mg, N = 8, mean (SD)) was 6.08e-06 s⁻¹. For the same compound, the AUC(0-inf) (plasma, oral, SAD single dose 80 mg, N = 8, mean (SD), read-out: AUC0-∞) was 5870 ng·h/mL, the MRT (plasma, oral, SAD single dose 80 mg, N = 8, mean (SD), read-out: MRT) was 40.5 h and the Vd/F (plasma, oral, SAD single dose 80 mg, N = 8, mean (SD), read-out: Vz/F) was 666 L. It also gave a half-life (plasma, oral, SAD single dose 80 mg, N = 8, mean (SD), read-out: t1/2 (converted)) of 2000 min, a Tmax (plasma, oral, SAD single dose 80 mg, N = 8, median (min, max), read-out: Tmax) of 6 h and an AUC(0-t) (plasma, oral, across single-dose groups 2.5–80 mg, read-out: AUC0-t, geometric mean range) of 172 to 5580 ng·h/mL. For the same compound, the AUC(0-inf) (plasma, oral, across single-dose groups 2.5–80 mg, read-out: AUC0-∞, geometric mean range) was 214 to 5790 ng·h/mL, the AUC(0-t) (plasma, oral, across single-dose groups 2.5–80 mg, read-out: AUC0–24h, geometric mean range) was 88.4 to 2680 ng·h/mL and the Cmax (plasma, oral, across single-dose groups 2.5–80 mg, read-out: Cmax, geometric mean range) was 5.1 to 157 ng/mL. It also gave a Vd/F (plasma, oral, across single-dose groups 2.5–80 mg, read-out: apparent volume of distribution (Vz/F), range of arithmetic means) of 430 to 772 L, a half-life (plasma, oral, across single-dose groups 2.5–80 mg, read-out: half-life (t1/2), range of arithmetic means) of 1630 to 2310 min and an MRT (plasma, oral, across single-dose groups 2.5–80 mg, read-out: mean residence time (MRT), range of arithmetic means) of 35.3 to 44.8 h. For the same compound, the Tmax (plasma, oral, across single-dose groups 2.5–80 mg, read-out: median time to peak plasma concentration (Tmax), range) was 5 to 8 h, the AUC(0-inf) (plasma, po, SAD single dose 20 mg, N = 8, mean (SD), read-out: AUC0-∞) was 1520 ng·h/mL and the “Cmax higher than Vilazodone” value (equivalent 20 mg doses (40.6 vs. 28.5 ng/mL)) was 42%. For the same compound, the “AUC0-∞ greater than Vilazodone” value (equivalent 20 mg doses (1,519.6 vs. 502 h ng/mL)) was “threefold greater”.

Source: PMC11979273, “A phase I study to evaluate the safety, tolerability, and pharmacokinetics of HEC113995PA·H2O, a novel dual-acting serotonergic antidepressant, in healthy subjects” (Frontiers in Pharmacology, 2025)
